According to US8415469B2, “Compounds and methods for kinase modulation, and indications therefor” (Plexxikon Inc., priority 2005, dated 2013):

Experiments:
Assay type in all cases: biochemical
[1] = molecular target: T1, Kdr (Homo sapiens, UniProt P35968); test: Z'-Lyte FRET kinase assay (Invitrogen), Kdr; details: read-out: IC50, activity toward kinase Kdr
T1 construct: purchased Invitrogen (assay run by Invitrogen)

[2] = molecular target: T2, Stk6 (Homo sapiens, UniProt O14965); test: Z'-Lyte FRET kinase assay (Invitrogen), Stk6; details: read-out: IC50, activity toward kinase Stk6
T2 construct: purchased Invitrogen (Carlsbad, Calif.), screening service
T2 sequence (O14965 1-403): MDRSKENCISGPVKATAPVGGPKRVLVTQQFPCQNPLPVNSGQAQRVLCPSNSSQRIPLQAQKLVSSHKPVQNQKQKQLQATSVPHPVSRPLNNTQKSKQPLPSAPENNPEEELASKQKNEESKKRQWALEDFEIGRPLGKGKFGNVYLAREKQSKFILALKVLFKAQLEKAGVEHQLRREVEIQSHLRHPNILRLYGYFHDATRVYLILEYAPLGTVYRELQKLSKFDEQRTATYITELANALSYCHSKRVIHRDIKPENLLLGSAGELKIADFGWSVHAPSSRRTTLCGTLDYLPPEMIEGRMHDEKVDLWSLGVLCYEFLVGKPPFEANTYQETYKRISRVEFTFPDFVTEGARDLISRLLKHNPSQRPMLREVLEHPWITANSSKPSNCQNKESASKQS

[3] = molecular target: T3, Ret (Homo sapiens, UniProt P07949); test: AlphaScreen kinase assay, Ret; details: read-out: IC50, activity toward kinase Ret
T3 construct: P1378.pET-SF BI-PTP RET H661-R1012 HIS; made in house
T3 sequence (P07949 with tags, fused parts or gaps): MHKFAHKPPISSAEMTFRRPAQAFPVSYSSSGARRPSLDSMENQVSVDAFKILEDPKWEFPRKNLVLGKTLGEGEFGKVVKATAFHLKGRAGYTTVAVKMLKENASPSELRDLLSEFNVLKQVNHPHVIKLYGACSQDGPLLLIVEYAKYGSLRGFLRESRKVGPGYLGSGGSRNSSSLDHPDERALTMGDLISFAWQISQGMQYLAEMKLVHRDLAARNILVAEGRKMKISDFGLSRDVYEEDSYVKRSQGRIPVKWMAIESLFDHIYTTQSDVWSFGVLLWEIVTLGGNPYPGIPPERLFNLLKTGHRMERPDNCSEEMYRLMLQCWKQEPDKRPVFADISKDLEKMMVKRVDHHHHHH

[4] = molecular target: T4, Kit (Homo sapiens, UniProt P10721); test: AlphaScreen kinase assay, Kit; details: read-out: IC50, activity toward kinase Kit
T4 construct: P1332.N6 BI PTP KIT M552-K948-X COD; His6 (N); made in house; host or cells: E. coli (PTP1B co-expressed)

[5] = molecular target: T5, B-Raf V600E (Homo sapiens, UniProt P15056, V600E); test: AlphaScreen kinase assay, B-Raf V600E; details: read-out: IC50, activity toward kinase B-Raf V600E
T5 construct: P4254. pFastBacBD-CDC37 BRAF D437-K722-X, V600E; His6 with pFastBac HT leader (TEV site) (N); made in house; host or cells: Sf9 (baculovirus; chaperone CDC37 co-expressed)

[6] = molecular target: T6, Jnk3 (Homo sapiens, UniProt P53779); test: AlphaScreen kinase assay, Jnk3; details: read-out: IC50, activity toward kinase Jnk3
T6 construct: purchased Upstate Biotechnology

[7] = molecular target: T7, FGFR1 (Homo sapiens, UniProt P11362, C488A/C584S); test: AlphaScreen kinase assay, FGFR1; details: read-out: IC50, activity toward kinase FGFR
T7 construct: P1351.pET N6 BI-PTP FGFR A458-E765-X C488A, C584S; made in house; host or cells: E. coli (PTP1B co-expressed)

[8] = molecular target: T8, B-Raf (Homo sapiens, UniProt P15056); test: AlphaScreen kinase assay, B-Raf; details: read-out: IC50, activity toward kinase B-Raf
T8 construct: purchased Upstate Biotechnology

[9] = molecular target: T9, Fms (Homo sapiens, UniProt P07333); test: AlphaScreen kinase assay, Fms; details: read-out: IC50, activity toward kinase Fms
T9 construct: purchased Upstate Biotechnology

[10] = molecular target: T10, Fak (Homo sapiens, UniProt Q05397); test: AlphaScreen kinase assay, Fak; details: read-out: IC50, activity toward kinase Fak
T10 construct: P1358.pFastBacHtb FAK S411-Q686-X; His6 with pFastBacHTb leader (TEV site) (N); made in house; host or cells: Sf9 (baculovirus)
T10 sequence (Q05397 411-686): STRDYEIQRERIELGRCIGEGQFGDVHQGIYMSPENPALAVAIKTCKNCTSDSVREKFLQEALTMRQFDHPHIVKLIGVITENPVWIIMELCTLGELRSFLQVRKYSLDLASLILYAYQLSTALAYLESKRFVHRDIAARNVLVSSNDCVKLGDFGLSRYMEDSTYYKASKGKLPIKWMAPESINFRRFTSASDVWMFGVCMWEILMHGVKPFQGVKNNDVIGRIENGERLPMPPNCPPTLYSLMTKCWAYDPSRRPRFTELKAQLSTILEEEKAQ

T6 sequence (P53779 whole entry): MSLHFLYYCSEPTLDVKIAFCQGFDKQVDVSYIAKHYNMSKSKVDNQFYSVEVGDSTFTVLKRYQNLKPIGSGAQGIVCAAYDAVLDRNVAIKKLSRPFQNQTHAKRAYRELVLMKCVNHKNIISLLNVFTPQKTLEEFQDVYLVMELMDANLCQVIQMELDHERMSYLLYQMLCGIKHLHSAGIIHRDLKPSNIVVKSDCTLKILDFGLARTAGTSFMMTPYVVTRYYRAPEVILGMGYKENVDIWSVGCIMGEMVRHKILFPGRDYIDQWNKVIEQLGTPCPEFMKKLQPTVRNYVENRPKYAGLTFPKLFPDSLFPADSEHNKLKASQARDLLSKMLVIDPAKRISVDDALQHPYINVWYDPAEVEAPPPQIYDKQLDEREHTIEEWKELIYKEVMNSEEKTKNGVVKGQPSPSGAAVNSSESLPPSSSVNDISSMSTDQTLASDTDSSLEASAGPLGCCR
T7 sequence (P11362 458-765 C488A/C584S): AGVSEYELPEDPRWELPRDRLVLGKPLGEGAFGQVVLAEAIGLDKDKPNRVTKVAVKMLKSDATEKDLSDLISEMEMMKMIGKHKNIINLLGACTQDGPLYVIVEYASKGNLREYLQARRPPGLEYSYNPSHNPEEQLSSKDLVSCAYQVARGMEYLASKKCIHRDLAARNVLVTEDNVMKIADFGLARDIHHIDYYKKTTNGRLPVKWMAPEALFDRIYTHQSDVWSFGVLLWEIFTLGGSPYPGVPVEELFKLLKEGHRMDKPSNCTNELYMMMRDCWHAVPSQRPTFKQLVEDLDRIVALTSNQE
T5 sequence (P15056 with tags, fused parts or gaps V600E): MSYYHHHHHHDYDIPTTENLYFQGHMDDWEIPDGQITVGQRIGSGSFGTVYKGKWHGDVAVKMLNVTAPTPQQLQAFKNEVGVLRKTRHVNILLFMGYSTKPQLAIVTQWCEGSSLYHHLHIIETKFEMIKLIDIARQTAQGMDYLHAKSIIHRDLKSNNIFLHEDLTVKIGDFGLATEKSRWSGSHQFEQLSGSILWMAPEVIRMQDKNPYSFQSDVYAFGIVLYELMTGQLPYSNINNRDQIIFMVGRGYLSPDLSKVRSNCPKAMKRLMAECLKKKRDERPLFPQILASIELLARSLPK
T1 sequence (P35968 20-1356): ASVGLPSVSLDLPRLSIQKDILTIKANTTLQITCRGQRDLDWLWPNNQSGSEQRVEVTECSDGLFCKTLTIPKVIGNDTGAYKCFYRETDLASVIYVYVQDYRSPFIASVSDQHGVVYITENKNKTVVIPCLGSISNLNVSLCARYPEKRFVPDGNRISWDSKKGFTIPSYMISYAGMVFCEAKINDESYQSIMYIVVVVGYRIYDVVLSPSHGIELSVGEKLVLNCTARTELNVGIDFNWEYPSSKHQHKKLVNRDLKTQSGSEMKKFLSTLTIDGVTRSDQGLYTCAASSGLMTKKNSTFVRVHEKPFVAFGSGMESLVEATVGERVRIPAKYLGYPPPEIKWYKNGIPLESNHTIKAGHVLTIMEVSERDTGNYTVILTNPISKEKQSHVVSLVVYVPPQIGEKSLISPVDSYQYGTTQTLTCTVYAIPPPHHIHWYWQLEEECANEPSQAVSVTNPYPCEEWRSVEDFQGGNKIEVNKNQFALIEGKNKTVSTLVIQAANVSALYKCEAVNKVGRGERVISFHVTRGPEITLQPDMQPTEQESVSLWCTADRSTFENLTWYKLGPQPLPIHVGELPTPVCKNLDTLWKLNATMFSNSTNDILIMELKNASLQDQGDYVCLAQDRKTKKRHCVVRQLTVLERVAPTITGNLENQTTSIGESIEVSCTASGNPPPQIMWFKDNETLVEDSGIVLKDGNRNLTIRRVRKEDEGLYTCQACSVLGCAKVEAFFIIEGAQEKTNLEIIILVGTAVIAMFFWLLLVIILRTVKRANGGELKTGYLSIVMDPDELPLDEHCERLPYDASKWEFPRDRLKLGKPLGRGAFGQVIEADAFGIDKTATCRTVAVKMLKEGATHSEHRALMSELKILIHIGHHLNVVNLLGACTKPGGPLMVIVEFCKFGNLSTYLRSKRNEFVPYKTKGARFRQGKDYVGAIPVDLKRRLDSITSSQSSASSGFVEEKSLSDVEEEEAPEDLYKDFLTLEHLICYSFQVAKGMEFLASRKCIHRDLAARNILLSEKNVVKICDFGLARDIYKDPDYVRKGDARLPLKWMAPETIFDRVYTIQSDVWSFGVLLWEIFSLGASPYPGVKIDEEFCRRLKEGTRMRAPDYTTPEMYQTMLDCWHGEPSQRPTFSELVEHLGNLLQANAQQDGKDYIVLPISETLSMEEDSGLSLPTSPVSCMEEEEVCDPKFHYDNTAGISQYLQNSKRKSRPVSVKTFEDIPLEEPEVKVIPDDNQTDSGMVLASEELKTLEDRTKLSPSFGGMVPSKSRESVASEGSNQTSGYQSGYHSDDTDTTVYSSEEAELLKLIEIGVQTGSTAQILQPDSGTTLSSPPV
T9 sequence (P07333 20-972): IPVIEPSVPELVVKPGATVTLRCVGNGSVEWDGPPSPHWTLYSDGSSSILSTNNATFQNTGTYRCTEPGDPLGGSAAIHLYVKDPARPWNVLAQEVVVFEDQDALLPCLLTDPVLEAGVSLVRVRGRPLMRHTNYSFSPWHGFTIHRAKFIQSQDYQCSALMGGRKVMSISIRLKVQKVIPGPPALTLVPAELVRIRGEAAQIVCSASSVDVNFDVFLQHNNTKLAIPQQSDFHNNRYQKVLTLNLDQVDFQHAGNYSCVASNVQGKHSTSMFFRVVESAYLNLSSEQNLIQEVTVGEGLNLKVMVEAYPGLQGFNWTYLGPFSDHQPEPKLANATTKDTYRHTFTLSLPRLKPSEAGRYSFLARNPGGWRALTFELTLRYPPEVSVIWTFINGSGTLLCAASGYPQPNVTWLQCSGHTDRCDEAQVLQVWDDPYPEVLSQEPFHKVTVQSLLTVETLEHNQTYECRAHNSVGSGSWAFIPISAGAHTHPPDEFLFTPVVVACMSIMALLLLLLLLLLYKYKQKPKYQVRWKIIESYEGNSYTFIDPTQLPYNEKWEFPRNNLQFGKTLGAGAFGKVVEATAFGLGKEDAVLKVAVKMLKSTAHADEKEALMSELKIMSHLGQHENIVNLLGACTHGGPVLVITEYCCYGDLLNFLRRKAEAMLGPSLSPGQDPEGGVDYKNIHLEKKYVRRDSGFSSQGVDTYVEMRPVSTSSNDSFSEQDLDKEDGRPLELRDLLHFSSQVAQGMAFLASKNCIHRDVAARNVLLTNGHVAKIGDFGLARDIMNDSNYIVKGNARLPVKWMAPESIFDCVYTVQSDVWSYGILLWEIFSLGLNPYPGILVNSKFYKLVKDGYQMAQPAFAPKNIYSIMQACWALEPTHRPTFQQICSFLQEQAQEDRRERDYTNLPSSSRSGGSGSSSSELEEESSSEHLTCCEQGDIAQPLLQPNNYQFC
T4 sequence (P10721 with tags, fused parts or gaps): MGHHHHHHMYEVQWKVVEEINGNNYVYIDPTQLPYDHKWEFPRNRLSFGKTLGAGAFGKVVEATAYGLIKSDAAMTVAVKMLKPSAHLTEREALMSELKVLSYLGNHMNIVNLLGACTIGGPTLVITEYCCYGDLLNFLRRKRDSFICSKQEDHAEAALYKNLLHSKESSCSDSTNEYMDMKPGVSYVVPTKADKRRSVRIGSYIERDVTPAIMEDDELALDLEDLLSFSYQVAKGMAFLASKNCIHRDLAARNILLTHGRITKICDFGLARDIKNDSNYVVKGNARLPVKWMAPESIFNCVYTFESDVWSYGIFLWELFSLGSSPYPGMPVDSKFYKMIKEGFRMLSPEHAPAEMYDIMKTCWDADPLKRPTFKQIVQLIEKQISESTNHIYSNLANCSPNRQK
T8 sequence (P15056 whole entry): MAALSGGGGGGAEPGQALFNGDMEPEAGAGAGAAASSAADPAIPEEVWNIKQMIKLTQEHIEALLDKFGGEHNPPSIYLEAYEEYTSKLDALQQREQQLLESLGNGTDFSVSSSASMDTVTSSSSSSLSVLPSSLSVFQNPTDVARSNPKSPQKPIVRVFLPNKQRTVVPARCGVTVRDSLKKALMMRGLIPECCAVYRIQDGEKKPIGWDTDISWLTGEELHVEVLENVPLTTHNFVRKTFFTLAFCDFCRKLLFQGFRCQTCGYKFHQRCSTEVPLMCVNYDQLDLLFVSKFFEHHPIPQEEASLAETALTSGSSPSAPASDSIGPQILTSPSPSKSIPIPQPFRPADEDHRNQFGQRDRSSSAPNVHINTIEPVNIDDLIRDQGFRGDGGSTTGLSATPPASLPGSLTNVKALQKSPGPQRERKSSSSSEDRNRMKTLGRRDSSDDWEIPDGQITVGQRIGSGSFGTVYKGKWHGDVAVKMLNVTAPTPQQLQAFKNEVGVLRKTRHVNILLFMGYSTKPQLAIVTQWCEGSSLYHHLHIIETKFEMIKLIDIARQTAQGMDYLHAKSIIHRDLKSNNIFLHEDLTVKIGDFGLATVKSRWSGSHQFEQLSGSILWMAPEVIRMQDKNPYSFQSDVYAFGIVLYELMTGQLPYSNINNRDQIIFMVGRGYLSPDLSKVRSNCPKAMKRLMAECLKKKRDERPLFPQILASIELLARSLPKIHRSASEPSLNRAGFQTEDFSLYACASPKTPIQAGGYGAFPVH

Row | IC50 [1] [µM] | IC50 [2] [µM] | IC50 [4] [µM] | IC50 [5] [µM] | IC50 [10] [µM] | SMILES | other results
1 | ≤ 10 | ≤ 10 | ≤ 10 |  |  | Fc1ccc(-c2c(CSCc3ccco3)[nH]c3ncccc23)cc1 [Compound P-0064] | IC50 [3]: ≤ 10 µM
2 | ≤ 10 | ≤ 10 |  | ≤ 10 |  | CC(=O)c1cccc(-c2ccnc3[nH]cc(Sc4cccs4)c23)c1 [Compound P-0092] | 
3 | ≤ 10 | ≤ 10 |  | ≤ 10 |  | O=C(O)/C=C/c1cccc(-c2ccnc3[nH]cc(C(=O)c4cccc(Cl)c4Cl)c23)c1 [Compound P-0110] | IC50 [3]: ≤ 10 µM
4 |  | ≤ 10 | ≤ 10 |  |  | c1ccc(COc2cccc(Cc3c[nH]c4ncc(-c5ccsc5)cc34)c2)cc1 [Compound P-0132] | IC50 [6]: ≤ 10 µM; IC50 [7]: ≤ 10 µM
5 | ≤ 10 | ≤ 10 |  | ≤ 10 |  | Cn1cccc1C(=O)c1c[nH]c2ncccc12 [Compound P-0147] | 
6 |  | ≤ 10 | ≤ 10 |  |  | O=C(c1cccc(F)c1)c1ccc(-c2cnc3[nH]ccc3c2)s1 [Compound P-0235] | 
7 |  | ≤ 10 |  |  |  | Cc1ccc(Sc2c[nH]c3nccc(-c4cccc(CO)c4)c23)cc1 [Compound P-0250] | IC50 [3]: ≤ 10 µM
8 | ≤ 10 | ≤ 10 |  |  |  | c1cnc2[nH]cc(-c3ccoc3)c2c1 [Compound P-0260] | 
9 |  | ≤ 10 |  |  |  | Cc1cc(C(=O)c2c[nH]c3nccc(-c4cccc(/C=C/C(=O)O)c4)c23)n(C)n1 [Compound P-0469] | IC50 [3]: ≤ 10 µM
10 |  |  |  |  | ≤ 10 | COc1cccc(C(=O)c2ccc(-c3cnc4[nH]ccc4c3)s2)c1 [Compound P-0494] | 
11 |  |  |  |  | ≤ 10 | CC(C)CCc1c[nH]c2ncccc12 [Compound P-0797] | 
12 |  |  |  |  | ≤ 10 | Cc1cc(C)cc(-c2c(C)[nH]c3ncccc23)c1 [Compound P-1054] | 
13 |  |  | ≤ 10 | ≤ 10 | ≤ 10 | COc1cccc(Cc2c[nH]c3ncc(-c4ccccc4)cc23)c1F [Compound P-1323, 3-(2-Fluoro-3-methoxy-benzyl)-5-phenyl-1H-pyrrolo[2,3-b]pyridine] | IC50 [7]: ≤ 10 µM; IC50 [9]: ≤ 10 µM
14 |  |  | ≤ 10 | ≤ 10 | ≤ 10 | COc1cccc(Cc2c[nH]c3ncc(-c4cccc(NS(C)(=O)=O)c4)cc23)c1F [Compound P-1329, N-{3-[3-(2-Fluoro-3-methoxy-benzyl)-1H-pyrrolo[2,3-b]pyridin-5-yl]-phenyl}-methanesulfonamide] | IC50 [7]: ≤ 10 µM; IC50 [9]: ≤ 10 µM

Second part, the compound before the results:

Row | SMILES | IC50 [1] [µM] | IC50 [2] [µM] | IC50 [4] [µM] | IC50 [5] [µM] | IC50 [10] [µM] | other results
15 | OCc1cccc(-c2ccnc3[nH]cc(Sc4cccs4)c23)c1 [Compound P-0071] | ≤ 10 | ≤ 10 |  | ≤ 10 |  | IC50 [3]: ≤ 10 µM
16 | CC(=O)c1cccc(-c2cnc3[nH]ccc3c2)c1 [Compound P-0080] |  | ≤ 10 |  |  |  | IC50 [6]: ≤ 10 µM
17 | O=C(O)/C=C/c1cccc(-c2ccnc3[nH]cc(C(=O)c4ccc(Cl)cc4)c23)c1 [Compound P-0100] | ≤ 10 | ≤ 10 |  | ≤ 10 |  | IC50 [3]: ≤ 10 µM
18 | COC(c1c(F)ccc(N(Cc2ccccc2)Cc2ccccc2)c1F)c1c[nH]c2ncc(-c3cccnc3)cc12 (stereo not shown) [Compound P-0143] | ≤ 10 | ≤ 10 |  |  |  | IC50 [8]: ≤ 10 µM
19 | Fc1cccc(-c2ccnc3[nH]cc(Sc4cccs4)c23)c1 [Compound P-0181] |  | ≤ 10 |  | ≤ 10 |  | IC50 [3]: ≤ 10 µM
20 | O=C(c1ccc(Nc2cccc(O)c2)nc1)c1c[nH]c2ncccc12 [Compound P-0189] | ≤ 10 | ≤ 10 |  |  |  | IC50 [6]: ≤ 10 µM; IC50 [7]: ≤ 10 µM; IC50 [9]: ≤ 10 µM
21 | Cc1ccc(-c2ccnc3[nH]cc(Sc4cccs4)c23)cc1[N+](=O)[O-] [Compound P-0199] | ≤ 10 | ≤ 10 |  | ≤ 10 |  | 
22 | O=C(O)/C=C/c1ccc(-c2ccnc3[nH]ccc23)cc1 [Compound P-0203] | ≤ 10 | ≤ 10 |  |  |  | 
23 | Fc1cccc(-c2ccnc3[nH]ccc23)c1 [Compound P-0225] | ≤ 10 | ≤ 10 |  |  |  | 
24 | c1csc(-c2c[nH]c3ncccc23)c1 [Compound P-0253] |  | ≤ 10 | ≤ 10 |  |  | 
25 | OC(c1ccc(NCc2ccc(Cl)cc2)nc1)c1c[nH]c2ncccc12 (stereo not shown) [Compound P-0261] | ≤ 10 | ≤ 10 |  | ≤ 10 |  | 
26 | c1ccc(-c2cnc3[nH]ccc3c2)cc1 [Compound P-0279] | ≤ 10 | ≤ 10 | ≤ 10 |  |  | IC50 [6]: ≤ 10 µM
27 | O=C(c1ccc(Oc2cc(Cl)cc(Cl)c2)o1)c1c[nH]c2ncccc12 [Compound P-0295] | ≤ 10 | ≤ 10 |  | ≤ 10 |  | 
28 | COc1ccc(-c2c(CSCC(C)C)[nH]c3ncccc23)cc1 [Compound P-0313] |  | ≤ 10 |  |  |  | IC50 [6]: ≤ 10 µM
29 | c1coc(-c2nc(-c3ccnc4[nH]ccc34)no2)c1 [Compound P-0319] | ≤ 10 | ≤ 10 |  |  |  | 
30 | c1coc(CNCc2c[nH]c3ncccc23)c1 [Compound P-0322] | ≤ 10 | ≤ 10 |  |  |  | 
31 | Cc1cccc(C)c1Cc1c[nH]c2ncccc12 [Compound P-0333, 3-(2,6-Dimethyl-benzyl)-1H-pyrrolo[2,3-b]pyridine] |  |  | ≤ 10 | ≤ 10 | ≤ 10 | IC50 [9]: ≤ 10 µM
32 | COc1ccc(CCCc2c[nH]c3ncccc23)cc1 [Compound P-0437] |  |  |  |  | ≤ 10 | 
33 | Cc1[nH]c2ncccc2c1-c1ccc(C(C)C)cc1 [Compound P-1083] |  |  |  |  | ≤ 10 | 
34 | Cc1[nH]c2ncccc2c1-c1ccc(F)c(Cl)c1 [Compound P-1146] |  |  |  |  | ≤ 10 | 
35 | Cc1[nH]c2ncccc2c1-c1ccco1 [Compound P-1190] |  |  |  |  | ≤ 10 | 
36 | OC(c1ccccc1F)c1c[nH]c2ncc(Br)cc12 (stereo not shown) [Compound P-1321] |  |  | ≤ 10 |  | ≤ 10 | IC50 [7]: ≤ 10 µM; IC50 [9]: ≤ 10 µM
37 | OCCOc1ccc(F)c(Cc2c[nH]c3ncc(Br)cc23)c1F [Compound P-1392, 2-[3-(5-Bromo-1H-pyrrolo[2,3-b]pyridin-3-ylmethyl)-2,4-difluoro-phenoxy]-ethanol] |  |  | ≤ 10 | ≤ 10 | ≤ 10 | IC50 [7]: ≤ 10 µM; IC50 [9]: ≤ 10 µM
38 | CCCCN(c1ccc(F)c(Cc2c[nH]c3ncc(-c4cccnc4)cc23)c1F)S(=O)(=O)c1ccc(C(F)(F)F)cc1 [Compound P-1401] |  |  |  |  | ≤ 10 | 
39 | Brc1cnc2[nH]cc(Cc3ccc4c(c3)OCCO4)c2c1 [Compound P-1474, 5-Bromo-3-(2,3-dihydro-benzo[1,4]dioxin-6-ylmethyl)-1H-pyrrolo[2,3-b]pyridine] |  |  | ≤ 10 | ≤ 10 | ≤ 10 | IC50 [7]: ≤ 10 µM; IC50 [9]: ≤ 10 µM
40 | Fc1cccc(F)c1Cc1c[nH]c2ncccc12 [Compound P-1482, 3-(2,6-Difluoro-benzyl)-1H-pyrrolo[2,3-b]pyridine] |  |  | ≤ 10 |  | ≤ 10 | IC50 [7]: ≤ 10 µM; IC50 [9]: ≤ 10 µM
41 | NS(=O)(=O)c1cccc(Nc2c[nH]c3ncccc23)c1 [Compound P-1500, 3-(1H-Pyrrolo[2,3-b]pyridin-3-ylamino)-benzenesulfonamide] |  |  | ≤ 10 |  | ≤ 10 | IC50 [9]: ≤ 10 µM
